Results published in ChEMBL document CHEMBL1158441 (Bioorg Med Chem Lett, 2009).
pIC50: −log10 of the molar value.

Columns and labels:
Sphingosine kinase 1 = Sphingosine kinase 1 (Homo sapiens, UniProt Q9NYA1); assay: Inhibition of SphK1
Sphingosine kinase 2 = biological target: T1, Sphingosine kinase 2 (Homo sapiens, UniProt Q9NRA0); assay: Inhibition of SphK2
T1 sequence (Q9NRA0 whole entry): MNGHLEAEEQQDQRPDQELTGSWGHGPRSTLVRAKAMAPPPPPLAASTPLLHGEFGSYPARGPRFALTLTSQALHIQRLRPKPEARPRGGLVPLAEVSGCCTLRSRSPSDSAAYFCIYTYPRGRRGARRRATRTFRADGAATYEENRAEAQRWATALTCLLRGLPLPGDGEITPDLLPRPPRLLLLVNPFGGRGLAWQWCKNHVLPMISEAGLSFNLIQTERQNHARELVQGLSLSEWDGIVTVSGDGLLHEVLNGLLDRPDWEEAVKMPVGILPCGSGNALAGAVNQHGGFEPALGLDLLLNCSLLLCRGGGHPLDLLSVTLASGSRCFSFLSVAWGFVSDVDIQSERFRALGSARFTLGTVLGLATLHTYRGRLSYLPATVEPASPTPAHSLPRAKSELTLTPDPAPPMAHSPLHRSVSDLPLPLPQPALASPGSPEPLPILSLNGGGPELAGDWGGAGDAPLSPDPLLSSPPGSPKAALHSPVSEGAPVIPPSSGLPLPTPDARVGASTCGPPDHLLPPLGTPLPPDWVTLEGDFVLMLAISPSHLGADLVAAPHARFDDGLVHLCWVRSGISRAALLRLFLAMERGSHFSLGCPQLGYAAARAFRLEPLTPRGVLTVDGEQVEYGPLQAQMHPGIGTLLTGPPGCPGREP

Sphingosine kinase 1, sequence (Q9NYA1 whole entry): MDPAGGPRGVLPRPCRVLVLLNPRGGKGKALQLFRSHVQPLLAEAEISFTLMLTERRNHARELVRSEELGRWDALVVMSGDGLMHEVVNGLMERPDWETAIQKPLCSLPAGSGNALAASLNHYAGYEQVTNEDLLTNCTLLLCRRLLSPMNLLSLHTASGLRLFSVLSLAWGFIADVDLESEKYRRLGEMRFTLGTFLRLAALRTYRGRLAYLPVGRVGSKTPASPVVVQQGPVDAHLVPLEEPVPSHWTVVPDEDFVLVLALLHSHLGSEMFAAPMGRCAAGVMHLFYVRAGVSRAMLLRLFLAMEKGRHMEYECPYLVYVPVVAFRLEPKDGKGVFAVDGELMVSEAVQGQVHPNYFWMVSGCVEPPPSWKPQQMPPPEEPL

SMILES	pIC50 (Sphingosine kinase 1)	pIC50 (Sphingosine kinase 2)
N[C@@H](CO)[C@H](O)/C=C/CCCCCCc1ccc(I)cc1	5.40	5.14
N[C@@H](CO)[C@H](O)/C=C/CCCCCCCCc1ccc(I)cc1	6.30	5.24
N[C@@H](CO)[C@H](O)/C=C/CCCCCCCCCCCCCc1ccc(I)cc1	5.40	4.53
N[C@@H](CO)[C@H](O)/C=C/CCCCCCCCCc1ccc(I)cc1	5.56	4.78
N[C@@H](CO)[C@H](O)/C=C/CCCCCCCCCCc1ccc(I)cc1	5.66	5.36
N[C@@H](CO)[C@H](O)/C=C/CCCCCCCCCCCc1ccc(I)cc1	5.65	4.88
CCCCCCCCCCCCC/C=C/[C@@H](O)[C@H](CO)N(C)C [DIMETHYLSPINGOSINE]	–	< 4.10
CCCCCCCCCCCCC/C=C/[C@@H](O)[C@@H](N)CO [SPHINGOSINE]	–	5.81
